Data: ChEMBL document CHEMBL1149566, “Himbacine derived thrombin receptor (PAR-1) antagonists: SAR of the pyridine ring” (Bioorg Med Chem Lett, 2007)
Each block holds one compound with its values, some of them ahead of it. The source made the active and inactive calls. The rule behind the calls is not given here.

How the values were obtained:
[1] = AUC (0 to 4 hrs) in rat; format: ADME, organism-based; set-up: time < 4 hr; concentration or dose not given beside the values; conditions: plasma
[2] = Cmax in rat; format: ADME, organism-based; conditions: in vivo
[3] = target: T1, Proteinase-activated receptor 1 (Homo sapiens, UniProt P25116); experiment: (§1) Displacement of [3H]haTRAP from human PAR1 receptor in platelet membrane; format: cell membranes
T1 sequence (P25116 whole entry): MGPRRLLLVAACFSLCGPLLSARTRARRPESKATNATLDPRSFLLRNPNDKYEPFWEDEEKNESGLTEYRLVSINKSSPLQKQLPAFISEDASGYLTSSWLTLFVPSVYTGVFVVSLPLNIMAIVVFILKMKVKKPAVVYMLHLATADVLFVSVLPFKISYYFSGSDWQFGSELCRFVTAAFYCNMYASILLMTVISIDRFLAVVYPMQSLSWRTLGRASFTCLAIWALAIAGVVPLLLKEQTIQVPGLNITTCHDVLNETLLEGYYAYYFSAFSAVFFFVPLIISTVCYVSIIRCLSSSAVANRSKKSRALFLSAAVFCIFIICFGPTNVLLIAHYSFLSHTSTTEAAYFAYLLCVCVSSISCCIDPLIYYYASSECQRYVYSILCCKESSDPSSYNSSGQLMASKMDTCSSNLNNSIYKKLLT

[4] = target: T2, Proteinase-activated receptor 1 (Homo sapiens) (UniProt P25116); experiment: Displacement of [3H]haTRAP from human PAR1 receptor in platelet membrane at 1 uM; format: cell membranes
T2 sequence (whole entry): T1 sequence (P25116 whole entry)

Cynomolgus monkey [5] = experiment: Ex vivo inhibition of platelet aggregation in cynomolgus monkey at 3 mg/kg after 6 hrs; format: functional; conditions: Macaca fascicularis
Cannabinoid receptor 2 = Cannabinoid receptor 2 (Homo sapiens, UniProt P34972); experiment: Binding affinity to cannabinoid CB2 receptor
[6] = target: T2, Proteinase-activated receptor 1 (Homo sapiens); experiment: as §1; format: cell membranes
Cynomolgus monkey [7] = experiment: Ex vivo inhibition of platelet aggregation in cynomolgus monkey at 3 mg/kg up to 4 hrs; format: functional, organism-based; set-up: dose 3 mg/kg; conditions: Macaca fascicularis

Sequence of Cannabinoid receptor 2 (P34972 whole entry): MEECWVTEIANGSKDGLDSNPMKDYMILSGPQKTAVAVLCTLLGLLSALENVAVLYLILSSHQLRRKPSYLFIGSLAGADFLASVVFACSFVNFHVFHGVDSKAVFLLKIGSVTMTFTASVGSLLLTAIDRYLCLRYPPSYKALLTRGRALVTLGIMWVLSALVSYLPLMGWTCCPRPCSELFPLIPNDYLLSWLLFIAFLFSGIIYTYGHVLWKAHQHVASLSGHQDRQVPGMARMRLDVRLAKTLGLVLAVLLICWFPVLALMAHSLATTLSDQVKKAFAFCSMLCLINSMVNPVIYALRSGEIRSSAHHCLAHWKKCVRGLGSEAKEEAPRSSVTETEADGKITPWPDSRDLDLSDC

Structure (SMILES): C[C@H]1OC(=O)[C@@H]2C[C@@H]3CCCC[C@H]3[C@H](/C=C/c3ccc(-c4ccccc4)cn3)[C@H]12
AUC(0-t) at 4 h [1]: 451 ng·h/mL
Cmax [2]: 223 ng/mL

Structure (SMILES): C[C@H]1OC(=O)[C@@H]2C=C3CCCC[C@H]3[C@H](/C=C/c3ccccn3)[C@H]12
IC50 [3]: 3600 nM
inhibition [4]: 16%

Structure (SMILES): C[C@H]1OC(=O)[C@@H]2C[C@@H]3CCCC[C@H]3[C@H](/C=C/c3ccc(-c4ccncc4)cn3)[C@H]12
IC50 [3]: 2140 nM

Structure (SMILES): C[C@H]1OC(=O)[C@@H]2C=C3CCCC[C@H]3[C@H](/C=C/c3nc4ccccc4o3)[C@H]12
inhibition [4]: 38%

Structure (SMILES): C[C@H]1OC(=O)[C@@H]2C=C3CCCC[C@H]3[C@H](/C=C/c3cncnc3)[C@H]12
inhibition [4]: 5%

Structure (SMILES): C[C@H]1OC(=O)[C@@H]2C=C3CCCC[C@H]3[C@H](/C=C/c3ccc(-c4ccccc4)cn3)[C@H]12
IC50 [3]: 43 nM

Structure (SMILES): C[C@H]1OC(=O)[C@@H]2C[C@@H]3CCCC[C@H]3[C@H](/C=C/c3ccc(-c4cncn4C)cn3)[C@H]12
IC50 [3]: 145 nM

Structure (SMILES): C[C@H]1OC(=O)[C@@H]2C[C@@H]3CCCC[C@H]3[C@H](/C=C/c3ccc(-c4cccc(C(F)(F)F)c4)cn3)[C@H]12
Activity (Cynomolgus monkey [5]): Active
AUC(0-t) at 4 h [1]: 3010 ng·h/mL
Cmax [2]: 1130 ng/mL

Structure (SMILES): C[C@H]1OC(=O)[C@@H]2C[C@@H]3CCCC[C@H]3[C@H](/C=C/c3ccc(-c4nccs4)cn3)[C@H]12
IC50 [3]: 47 nM

Structure (SMILES): C[C@H]1OC(=O)[C@@H]2C[C@@H]3CCCC[C@H]3[C@H](/C=C/c3ccc(N4CCCC4)cn3)[C@H]12
IC50 [3]: 29 nM
Ki (Cannabinoid receptor 2): 487 nM

Structure (SMILES): C[C@H]1OC(=O)[C@@H]2C[C@@H]3CCCC[C@H]3[C@H](/C=C/c3ccc(-c4ncc[nH]4)cn3)[C@H]12
IC50 [3]: 1320 nM

Structure (SMILES): C[C@H]1OC(=O)[C@@H]2C[C@@H]3CCCC[C@H]3[C@H](/C=C/c3ccc(-c4ccccn4)cn3)[C@H]12
IC50 [3]: 22 nM
AUC(0-t) at 4 h [1]: 509 ng·h/mL
Cmax [2]: 251 ng/mL

Structure (SMILES): CCc1ccc(/C=C/[C@H]2[C@@H]3CCCC[C@H]3C[C@H]3C(=O)O[C@H](C)[C@@H]23)nc1
IC50 [3]: 263 nM

Structure (SMILES): C[C@H]1OC(=O)[C@@H]2C[C@@H]3CCCC[C@H]3[C@H](/C=C/c3ccc(-c4cccs4)cn3)[C@H]12 (racemic)
IC50 [3]: 16 nM
AUC(0-t) at 4 h [1]: 160 ng·h/mL
Cmax [2]: 109 ng/mL

Structure (SMILES): C[C@H]1OC(=O)[C@@H]2C=C3CCCC[C@H]3[C@H](/C=C/c3ccccc3)[C@H]12
Activity [6]: inactive
inhibition [4]: 2%

Structure (SMILES): C[C@H]1OC(=O)[C@@H]2C[C@@H]3CCCC[C@H]3[C@H](/C=C/c3ccc(-c4ccc[n+]([O-])c4)cn3)[C@H]12
IC50 [3]: 207 nM

Structure (SMILES): C[C@H]1OC(=O)[C@@H]2C[C@@H]3CCCC[C@H]3[C@H](/C=C/c3ccc(-c4ccco4)cn3)[C@H]12 (racemic)
IC50 [3]: 12 nM

Structure (SMILES): C[C@H]1OC(=O)[C@@H]2C[C@@H]3CCCC[C@H]3[C@H](/C=C/c3ccc(N4CCOCC4)cn3)[C@H]12
IC50 [3]: 440 nM

Structure (SMILES): Cc1nc(/C=C/[C@@H]2[C@@H]3[C@@H](C)OC(=O)[C@@H]3C=C3CCCC[C@H]32)ccc1-c1ccccc1
IC50 [3]: 130 nM

Structure (SMILES): C[C@H]1OC(=O)[C@@H]2C[C@@H]3CCCC[C@H]3[C@H](/C=C/c3ccc(-c4cnccn4)cn3)[C@H]12
IC50 [3]: 88 nM

Structure (SMILES): Cc1cccc(/C=C/[C@@H]2[C@@H]3[C@@H](C)OC(=O)[C@@H]3C=C3CCCC[C@H]32)c1
Activity [6]: inactive

Structure (SMILES): C[C@H]1OC(=O)[C@@H]2C=C3CCCC[C@H]3[C@H](/C=C/c3nccs3)[C@H]12
inhibition [4]: 14%

Structure (SMILES): C[C@H]1OC(=O)[C@@H]2C[C@@H]3CCCC[C@H]3[C@H](/C=C/c3ccc(N4CCN(C)CC4)cn3)[C@H]12
inhibition [4]: 12%

Further lines, with some results ahead:

inhibition [4]: 11%
Structure (SMILES): C[C@H]1OC(=O)[C@@H]2C=C3CCCC[C@H]3[C@H](/C=C/c3cccnc3)[C@H]12

IC50 [3]: 3300 nM
Structure (SMILES): C[C@H]1OC(=O)[C@@H]2C[C@@H]3CCCC[C@H]3[C@H](/C=C/c3ccc(N4CCN(c5ccccc5)CC4)cn3)[C@H]12

IC50 [3]: 350 nM
Structure (SMILES): Cc1cccc(/C=C/[C@@H]2[C@@H]3[C@@H](C)OC(=O)[C@@H]3C=C3CCCC[C@H]32)n1

IC50 [3]: 36 nM
AUC(0-t) at 4 h [1]: 1060 ng·h/mL
Cmax [2]: 343 ng/mL
Structure (SMILES): C[C@H]1OC(=O)[C@@H]2C[C@@H]3CCCC[C@H]3[C@H](/C=C/c3ccc(-c4ccc(Cl)s4)cn3)[C@H]12 (racemic)

IC50 [3]: 11 nM
AUC(0-t) at 4 h [1]: 434 ng·h/mL
Cmax [2]: 461 ng/mL
Structure (SMILES): C[C@H]1OC(=O)[C@@H]2C[C@@H]3CCCC[C@H]3[C@H](/C=C/c3ccc(-c4ccsc4)cn3)[C@H]12 (racemic)

IC50 [3]: 115 nM
Structure (SMILES): C[C@H]1OC(=O)[C@@H]2C[C@@H]3CCCC[C@H]3[C@H](/C=C/c3ccc(C4CCCC4)cn3)[C@H]12

IC50 [3]: 285 nM
Structure (SMILES): CCc1nc(/C=C/[C@@H]2[C@@H]3[C@@H](C)OC(=O)[C@@H]3C=C3CCCC[C@H]32)ccc1-c1ccccc1

inhibition [4]: 1%
Structure (SMILES): C[C@H]1OC(=O)[C@@H]2C=C3CCCC[C@H]3[C@H](/C=C/c3cnccn3)[C@H]12

inhibition [4]: 45%
Structure (SMILES): C[C@H]1OC(=O)[C@@H]2C=C3CCCC[C@H]3[C@H](/C=C/c3cnc4ccccc4c3)[C@H]12

IC50 [3]: 22 nM
AUC(0-t) at 4 h [1]: 4230 ng·h/mL
Cmax [2]: 1820 ng/mL
Ki (Cannabinoid receptor 2): 13000 nM
Structure (SMILES): C[C@H]1OC(=O)[C@@H]2C[C@@H]3CCCC[C@H]3[C@H](/C=C/c3ccc(-c4cccnc4)cn3)[C@H]12
Activity (Cynomolgus monkey [7]): Active
inhibition in vivo at 3 mg/kg (Cynomolgus monkey [5]): 70%
